Assay results published in patent publication US5401490A, “Markers of tissue hypoxia” (priority 1989, dated 1995).
Where two headings read alike, the source gives them in different places.

Assays:
EMT-6 cells = experiment: Cell uptake / binding to the acid insoluble (macromolecular) fraction of EMT-6 cells; type: cell-based, mouse
Description: The binding of IAZG to the acid precipitable fraction of EMT-6 cells in vitro is dependent on the degree of hypoxia as shown in FIG. 4. […] To assess the relative efficiency of uptake of the test compounds, the initial binding rate in terms of pmol/10^6 cells/h was determined at several different concentrations. […] This is the highest binding rate measured to date for any 2-nitroimidazole derivative and is 4 to 8 times greater than MISO.
Initial binding rates were measured (FIG. 8) at four concentrations of IAZA (3, 10, 30 and 100 μM), using normally oxygenated and hypoxic EMT-6 cell cultures as described previously (13). Similar studies at the same concentration of misonidazole were used as controls.
EXAMPLE 8 CELL UPTAKE STUDIES
The uptake of test drugs into EMT-6 cell suspensions, under oxic and hypoxic conditions, was determined as described previously (18, 13). The data were analyzed in terms of drug binding to the macromolecular fraction at various times and at various test drug concentrations (FIG. 4). The initial binding rate, in units of pmol/10^6 cells per hour for each drug, was determined from the binding data (FIG. 5).

[1] = Tissue distribution of radioactivity after intravenous injection; type: in vivo, BALB/C mice; details: mouse, iv, i.v.; for tissue uptake at 0.5 h: 0.50 h
Description: Tables 1 and 2 show the percent of injected IAZG and IAZA respectively per gram of wet tissue for selected tissues excised from BALB/C mice bearing EMT-6 tumors. This tumor model is known to have a high hypoxic fraction (0.33) (16). […] Hepatobiliary excretion may play a role in blood clearance as evidenced by elevated liver radioactivity and the appearance of activity in the intestine. Some oxidative or reductive metabolites of the 2-nitroimidazoles may also become bound to liver tissue, as was postulated in an in vivo study with ^14 C-MISO (6). This supposition is supported by the persistence of liver radioactivity at longer time periods. […] At 8 and 24 hours thyroid levels of IAZG are 7.2 and 30.9% of the total body activity and for IAZA they are 7.9 and 33.8% of total body activity. EXAMPLE 11 TISSUE DISTRIBUTION AND EXCRETION Tumor propagation of EMT-6 tumors in BALB/C mice was accomplished by subcutaneous injection of a cell suspension (10^5 cells in 0.1 mL) as described previously (10). Tumors reached about 10 mm in diameter (≈0.5 g) at 12 to 14 days, at which time each animal was given a bolus intravenous injection of ^125 I-labelled test drug via the tail vein (40 to 60 kBq in 0.1 mL). At set time periods the animals were asphyxiated with CO2 and exsanguinated via cardiac puncture. Tissues were dissected, weighed wet into vials and counted for ^125 I-activity. Whole-body activity was determined by summation of total activity in tissues and in residual carcass, and blood activity was determined from the blood aliquot, assuming blood to be 6.5% of the total body weight. EXAMPLE 12 Male BALB/c mice (20-25 g) were inoculated subcutaneously in the left flank with a suspension of murine EMT-6 cells (10^5 cells in 0.1 mL) (14). After 12 to 14 days, when the tumors reached the desired size (8-10 mm diameter), each mouse received a single intravenous (iv) injection of ^125 I-IAZA (59 kBq in 0.1 mL). […] Heart, lung, liver, spleen, muscle, bone, thyroid, kidney, stomach, small intestine, tail, tumor and skin were removed upon necropsy, weighed and analyzed for ^125 I using a Beckman Model 8000 gamma scintillation counter. The remaining carcass mass was also weighed and radioassayed.

[2] = blood, read-out: Percent of Injected Dose per Gram, Blood
[3] = intestine, read-out: Percent of Injected Dose per Gram, Intestine
[4] = kidney, read-out: Percent of Injected Dose per Gram, Kidney
[5] = liver, read-out: Percent of Injected Dose per Gram, Liver
[6] = lung, read-out: Percent of Injected Dose per Gram, Lung
[7] = muscle, read-out: Percent of Injected Dose per Gram, Muscle
[8] = stomach, read-out: Percent of Injected Dose per Gram, Stomach
[9] = tumor, read-out: Percent of Injected Dose per Gram, Tumor

In the case of `O=[N+]([O-])c1nccn1[C@@H]1O[C@H](CI)[C@H](O)[C@H](O)[C@H]1O` [IAZG, 1-(6-iodo-6-deoxy-β-D-galactopyranosyl)-2-nitroimidazole], the binding with time (EMT-6 cells) is reported as “appears to increase linearly with time”, the “oxygen dependence of uptake/binding” value (EMT-6 cells; 10 μM, various oxygen levels) is reported as “greatest uptake of IAZG occurs under nitrogen incubation with a decrease in the binding rate as the oxygen concentration to which the cells are exposed is increased” and the “initial binding rate, comparison” value (EMT-6 cells; hypoxic, vs IAZA or MISO) is reported as “higher binding rate than IAZA or MISO”. For the same compound, the tissue uptake at 0.25 h [1, 2] was 1.83 ± 0.17 %ID/g, the tissue uptake at 0.5 h [1, 2] was 1.11 ± 0.16 %ID/g and the tissue uptake at 1 h [1, 2] was 0.86 ± 0.26 %ID/g. The tissue uptake at 2 h [1, 2] was 0.53 ± 0.1 %ID/g, the tissue uptake at 4 h [1, 2] was 0.28 ± 0.07 %ID/g and the tissue uptake at 8 h [1, 2] was 0.16 ± 0.03 %ID/g. For the same compound, the tissue uptake at 24 h [1, 2] was 0.06 ± 0.02 %ID/g, the tissue uptake at 0.25 h [1, 3] was 6.82 ± 5.2 %ID/g and the tissue uptake at 0.5 h [1, 3] was 3.65 ± 1.36 %ID/g. The tissue uptake at 1 h [1, 3] was 1.16 ± 0.25 %ID/g, the tissue uptake at 2 h [1, 3] was 0.82 ± 0.45 %ID/g and the tissue uptake at 4 h [1, 3] was 0.29 ± 0.07 %ID/g. For the same compound, the tissue uptake at 8 h [1, 3] was 0.17 ± 0.08 %ID/g, the tissue uptake at 24 h [1, 3] was 0.05 ± 0.02 %ID/g and the tissue uptake at 0.25 h [1, 4] was 15.6 ± 1.15 %ID/g. It also gave a tissue uptake at 0.5 h [1, 4] of 8.94 ± 1.2 %ID/g, a tissue uptake at 1 h [1, 4] of 4.56 ± 1.41 %ID/g and a tissue uptake at 2 h [1, 4] of 2.67 ± 0.51 %ID/g. It also gave a tissue uptake at 4 h [1, 4] of 1.1 ± 0.29 %ID/g, a tissue uptake at 8 h [1, 4] of 0.4 ± 0.02 %ID/g and a tissue uptake at 24 h [1, 4] of 0.09 ± 0.03 %ID/g. The tissue uptake at 0.25 h [1, 5] was 5.5 ± 0.79 %ID/g, the tissue uptake at 0.5 h [1, 5] was 2.96 ± 0.49 %ID/g and the tissue uptake at 1 h [1, 5] was 1.48 ± 0.24 %ID/g. The tissue uptake at 2 h [1, 5] was 1.4 ± 0.56 %ID/g, the tissue uptake at 4 h [1, 5] was 0.43 ± 0.12 %ID/g and the tissue uptake at 8 h [1, 5] was 0.2 ± 0.02 %ID/g. It also gave a tissue uptake at 24 h [1, 5] of 0.08 ± 0.02 %ID/g, a tissue uptake at 0.25 h [1, 6] of 2.77 ± 0.44 %ID/g and a tissue uptake at 0.5 h [1, 6] of 1.46 ± 0.24 %ID/g. For the same compound, the tissue uptake at 1 h [1, 6] was 0.74 ± 0.12 %ID/g, the tissue uptake at 2 h [1, 6] was 0.61 ± 0.17 %ID/g and the tissue uptake at 4 h [1, 6] was 0.33 ± 0.09 %ID/g. For the same compound, the tissue uptake at 8 h [1, 6] was 0.16 ± 0.02 %ID/g, the tissue uptake at 24 h [1, 6] was 0.07 ± 0.01 %ID/g and the tissue uptake at 0.25 h [1, 7] was 1.31 ± 0.21 %ID/g. It also gave a tissue uptake at 0.5 h [1, 7] of 0.7 ± 0.18 %ID/g, a tissue uptake at 1 h [1, 7] of 0.37 ± 0.19 %ID/g and a tissue uptake at 2 h [1, 7] of 0.34 ± 0.2 %ID/g. It also gave a tissue uptake at 4 h [1, 7] of 0.14 ± 0.03 %ID/g, a tissue uptake at 8 h [1, 7] of 0.06 ± 0.02 %ID/g and a tissue uptake at 24 h [1, 7] of 0.02 ± 0.01 %ID/g. For the same compound, the tissue uptake at 0.25 h [1, 8] was 3.29 ± 1.07 %ID/g, the tissue uptake at 0.5 h [1, 8] was 2.14 ± 1.01 %ID/g and the tissue uptake at 1 h [1, 8] was 1.38 ± 0.42 %ID/g. The tissue uptake at 2 h [1, 8] was 1.49 ± 1.12 %ID/g, the tissue uptake at 4 h [1, 8] was 0.55 ± 0.3 %ID/g and the tissue uptake at 8 h [1, 8] was 0.42 ± 0.35 %ID/g. The tissue uptake at 24 h [1, 8] was 0.06 ± 0.04 %ID/g, the tissue uptake at 0.25 h [1, 9] was 1.75 ± 0.46 %ID/g and the tissue uptake at 0.5 h [1, 9] was 1.45 ± 0.24 %ID/g. The tissue uptake at 1 h [1, 9] was 1.21 ± 0.21 %ID/g, the tissue uptake at 2 h [1, 9] was 0.77 ± 0.17 %ID/g and the tissue uptake at 4 h [1, 9] was 0.43 ± 0.09 %ID/g. For the same compound, the tissue uptake at 8 h [1, 9] was 0.23 ± 0.09 %ID/g and the tissue uptake at 24 h [1, 9] was 0.08 ± 0.01 %ID/g.
